The record followed here is patent US12291508B2, “Hydrazide containing nuclear transport modulators and uses thereof” (Karyopharm Therapeutics Inc., priority 2011, dated 2025).

The Kp is tissue or fluid exposure divided by exposure in the circulation. As a reminder, the AUC(0-inf) is the area under the concentration-time curve extrapolated to infinity. A higher AUC(0-inf) goes with more exposure.

Series [1] relates to MM.1S multiple myeloma cell line. The experiment in a line: CellTiter 96 AQueous One Solution cell proliferation assay, MM.1S. To be noted: Homo sapiens, MM1.S, 72 h of treatment, read-out: Cytotoxicity Assay. Format: cell-based. From the text:
The CellTiter 96® AQueous One Solution cell proliferation assay (Promega) was used on MM.1S multiple myeloma cell line to study the cytotoxic and cytostatic properties of the compounds. The assay is based on the cleavage of the tetrazolium salt, MTS, in the presence of an electron-coupling reagent PES (phenazine ethosulfate). The MTS tetrazolium compound is bioreduced by cells into a colored formazan product that is soluble in tissue culture medium. This conversion is presumably accomplished by NADPH or NADH produced by dehydrogenase enzymes in metabolically active cells. Assays are performed by adding a small amount of the CellTiter 96® AQueous One solution reagent directly to culture wells, incubating for 1-4 hours and then recording the absorbance at 490 nm with a 96-well plate reader.
The cells were seeded at 5×10^3 to 1.5×10^4 cells in each well of a 96-well plate in 100 μL of fresh culture medium and adherent cells were allowed to attach overnight. The stock solutions of the compounds were diluted in cell culture medium to obtain eight concentrations of each drug, ranging from 1 nM to 30 μM and DMSO at less than 1% v/v was used as a negative control. The resulting drug solutions were transferred onto the cells. After 72 h of treatment, 20 μl of CellTiter 96® AQueous reagent was added into each well of the 96-well assay plates and the plate was incubated at 37° C. for 1-4 hours in a humidified, 5% CO2 atmosphere. Then the absorbance of each well was recorded at 490 nm using a 96-well plate reader. In most cases, the assay was performed in triplicate and the results were presented as half maximal inhibitory concentration (IC50). Optical density versus compound concentration was plotted and analyzed using non-linear regression equations (IDBS XLfit) and the IC50 for each compound was calculated.

A short description of series [2]: Brain to Plasma (B:P) ratio in mice. As to conditions: mouse, brain/plasma, 10 mg/kg po, 2 hours post-dose. Format: in vivo. As to the method:
Brain to Plasma (B:P) Ratio. […] Following collection, brain tissue was rinsed with cold saline, dried on filter paper, weighed and snap-frozen by placing on dry ice. All samples were stored frozen at approximately −80° C. until analysis. […] Plasma samples were treated with the identical method (except homogenization step) and the concentration of compound in each matrix was calculated based on generated standard curves.

Series [3] addresses T1, CRM1-mediated nuclear export (Homo sapiens, UniProt O14980).
T1 construct: endogenous in cells; host or cells: U2OS-RevGFP cells
Kind of series: RevGFP assay, inhibition of nuclear export. Format: cell-based. As to conditions: U2OS-RevGFP cells, about 1 hr incubation; read-out: Rev Export. Here is the method:
The ability of exemplary compounds of the invention to inhibit CRM1-mediated nuclear export was assessed in a RevGFP assay. Rev is a protein from human immunodeficiency virus type 1 (HIV-1) and contains a nuclear export signal (NES) in its C-terminal domain and a nuclear localization signal (NLS) in its N-terminal domain. Nuclear export of Rev protein is dependent on the classical NES/CRM1 pathway (Neville et al. 1997).
In this assay, U2OS-RevGFP cells were seeded onto clear-bottomed, black, 384-well plates the day before the experiment. Compounds were serially diluted 1:2 in DMEM, starting from 40 μM in a separate, 384-well plate, and then transferred onto the cells. The cells were incubated with compound for about 1 hr before fixation with 3.7% formaldehyde and nuclei staining with Hoechst 33258. The amount of GFP in cell nuclei was measured and the IC50 of each compound was determined (Kau et al. 2003).

Series [4] in a line: Pharmacokinetic (PK) assay, plasma AUC in mice. Format: in vivo. As to conditions: mouse, plasma, 10 mg/kg po. As to the method: AUC. Blood was collected from mice (N=3) to contribute to the total of 10 time points (pre-dose, 5 min, 15 min, 30 min, 1 hour, 2 hours, 4 hours, 8 hours, 12 hours and 24 hours post dose). Mice were bled on a rotating basis, each mouse contributing 3 time points to the blood collection. At the designated time points, animals were anaesthetized under isoflurane, and approximately 110 μL of blood per time point was collected via retro-orbital puncture into pre-cooled K2EDTA (anti-coagulant) tubes. Blood samples were put on wet ice and centrifuged (2000 g, 5 min at 4° C.) to obtain plasma within 30 minutes of sample collection. All samples were stored frozen at approximately −80° C. until analysis. Prior to analysis, samples were mixed with internal standard (dexamethasone) in acetonitrile, vortexed, centrifuged, and supernatant was injected for analysis. Concentration of compounds in plasma was determined using LC-MS-MS instrumentation (API 4000, Triple Quadruple with electrospray ionization; Acuity Ultra Performance Liquid Chromatography column C18, with MeOH and formic acid as organic solvents). AUC values were calculated using WinNonlin Professional 6.2 software package, non-compartmental pharmacokinetic model NCA200.

Structures are written as SMILES.

T1 sequence (O14980 whole entry): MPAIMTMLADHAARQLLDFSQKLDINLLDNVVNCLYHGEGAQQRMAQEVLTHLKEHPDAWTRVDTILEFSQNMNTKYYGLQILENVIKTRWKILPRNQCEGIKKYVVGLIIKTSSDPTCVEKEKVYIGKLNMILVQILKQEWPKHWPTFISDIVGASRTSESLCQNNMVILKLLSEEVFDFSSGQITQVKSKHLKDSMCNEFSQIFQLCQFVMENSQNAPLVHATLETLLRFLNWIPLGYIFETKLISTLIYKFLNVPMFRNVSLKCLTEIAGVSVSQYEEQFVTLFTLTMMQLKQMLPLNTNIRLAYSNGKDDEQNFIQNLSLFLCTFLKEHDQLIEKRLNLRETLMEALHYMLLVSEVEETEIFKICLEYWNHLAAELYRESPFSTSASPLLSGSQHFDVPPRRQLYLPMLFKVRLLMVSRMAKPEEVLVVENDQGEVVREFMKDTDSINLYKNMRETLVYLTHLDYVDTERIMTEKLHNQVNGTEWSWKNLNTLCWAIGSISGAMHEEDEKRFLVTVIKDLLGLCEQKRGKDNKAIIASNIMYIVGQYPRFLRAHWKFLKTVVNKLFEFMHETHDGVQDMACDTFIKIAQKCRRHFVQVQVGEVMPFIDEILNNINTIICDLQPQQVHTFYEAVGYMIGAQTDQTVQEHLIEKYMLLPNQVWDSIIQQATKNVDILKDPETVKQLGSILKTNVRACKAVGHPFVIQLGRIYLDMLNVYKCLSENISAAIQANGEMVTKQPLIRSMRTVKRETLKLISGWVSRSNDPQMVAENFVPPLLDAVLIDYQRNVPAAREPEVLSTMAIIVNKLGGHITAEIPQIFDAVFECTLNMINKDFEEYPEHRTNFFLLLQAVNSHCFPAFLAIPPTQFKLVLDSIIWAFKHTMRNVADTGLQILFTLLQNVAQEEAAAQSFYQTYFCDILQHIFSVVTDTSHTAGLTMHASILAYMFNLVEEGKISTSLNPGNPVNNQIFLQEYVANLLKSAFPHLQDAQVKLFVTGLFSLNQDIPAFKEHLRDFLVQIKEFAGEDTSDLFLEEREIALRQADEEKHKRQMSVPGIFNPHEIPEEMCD

As for `CN(NC(=O)/C=C\n1cnc(-c2cc(C(F)(F)F)cc(C(F)(F)F)c2)n1)c1cnccn1` [Compound I-8, (Z)-3-(3-(3,5-bis(trifluoromethyl)phenyl)-1H-1,2,4-triazol-1-yl)-N′-methyl-N′-(pyrazin-2-yl)acrylohydrazide], the IC50 in series [1] and in series [3] was no more than 1000 nM throughout. Moreover, the Kp at 2 h in series [2] amounted to 2.1. The molecule also came in with an AUC(0-inf) in series [4] of 4600 ng·h/mL.

As for `O=C(/C=C\n1cnc(-c2cc(C(F)(F)F)cc(C(F)(F)F)c2)n1)NNc1cc(Cl)ncn1` [Compound I-12, (Z)-3-(3-(3,5-bis(trifluoromethyl)phenyl)-1H-1,2,4-triazol-1-yl)-N′-(6-chloropyrimidin-4-yl)acrylohydrazide], the IC50 in series [1] and in series [3] was no more than 1000 nM throughout. Also, the Kp at 2 h in series [2] is 0.13. Further, in series [4], the AUC(0-inf) was found to be 24900 ng·h/mL.
